From US8252781B2, “1,2-diazetidin-3-one derivatives and drugs containing same” (Kowa Company, Ltd., priority 2008, dated 2012)
Where two headings read alike, the source gives them in different places.

Experiments:
human 11β-HSD1 = target: T1, human 11β-HSD1 (Homo sapiens, UniProt P28845); experiment: Enzyme inhibitory activity, human 11β-HSD1 (lysate of stably expressing HEK293 cells, cortisol by competitive ELISA); type: biochemical; settings: human 11β-HSD1, cell lysate, 37° C. for 1 hour, read-out: h HSD1 in vitro assay (IC50 uM)
T1 construct: The obtained PCR products of about 0.9 kbp, 1.2 kbp, and 0.9 kbp were subcloned into an expression vector pcDNA3.1+/Zeo; expressed in transfected cells
T1 sequence (P28845 whole entry): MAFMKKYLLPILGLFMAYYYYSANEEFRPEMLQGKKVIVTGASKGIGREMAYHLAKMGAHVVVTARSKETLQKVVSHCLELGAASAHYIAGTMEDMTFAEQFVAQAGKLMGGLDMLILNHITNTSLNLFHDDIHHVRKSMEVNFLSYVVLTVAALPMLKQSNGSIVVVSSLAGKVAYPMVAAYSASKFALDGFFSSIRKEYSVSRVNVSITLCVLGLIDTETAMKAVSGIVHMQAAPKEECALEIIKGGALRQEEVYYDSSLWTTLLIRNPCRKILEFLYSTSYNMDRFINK
Experimental: (§1) 1. Human 11β-HSD1-, Human 11β-HSD2- and Mouse 11β-HSD1-Gene Clonings and Establishment of Stably Expressing Cells
(§2) Human 11β-HSD1-, human 11β-HSD2-, and mouse 11β-HSD1-gene clonings were conducted using as a template a reverse transcription product of human-liver RNA, human-kidney RNA (CELL APPLICATIONS), and mouse-kidney RNA respectively, by means of PCR cloning with reference to nucleotide sequences of Genbank Accession Nos. NM_005525, NM_000196, and NM_008288. The obtained PCR products of about 0.9 kbp, 1.2 kbp, and 0.9 kbp were subcloned into an expression vector pcDNA3.1+/Zeo (Invitrogen).
(§3) Human 11β-HSD1- and human 11β-HSD2-expressing vectors were transfected into human kidney-derived cell line, HEK293 cells, using a transfection reagent, jet PEI (Funakoshi). Mouse 11β-HSD1 was transfected to Chinese hamster ovary-derived cell line, CHO-K1 cells. Selection was conducted with 200-400 μg/mL of zeocine (Invitrogen) to provide stably expressing-cell clones. The stably expressing cells were suspended in buffer solution A (20 mmol/L Tris-HCl, pH 7.4, 250 mmol/L sucrose, 1 mmol/L EGTA, 1 mmol/L EDTA, 1 mmol/L MgCl2), sonicated, and then stored at −80° C.
(§4) 2. Assay of Enzyme Inhibitory Activity
(§5) An enzymatic reaction was conducted using a polystyrene 96-well plate. Each well was added with 1 μL of a test agent dissolved in DMSO and then diluted (0.003 to 3 mmol/L), and further added with 10 μL of cell lysate diluted to a concentration of 0.1 mg/mL to 0.4 mg/mL. Next, 90 μL of buffer solution A containing substrate (100 nmol/L cortisone or cortisol) and coenzyme (400 μmol/L NADPH or NAD+) was added and the mixture was incubated at 37° C. for 1 hour. The enzymatic reaction was stopped by treating at 95° C. for 3 minutes. Cortisol that was present in the reaction solution was determined by a competitive ELISA shown below.
(§6) Anti-rabbit IgG antibody (Chemi-con) diluted to 2 μg/mL with carbonate buffer solution (pH 9.6) was added in 100 μL each to a 96-well immuno plate (Nunc) and immobilized by an incubation at 4° C. overnight. 50 μL of enzymatic reaction solution was put onto the plates, and further, anti-cortisol antibody (Cosmo Bio) and HRP-labeled cortisol (Cosmo Bio), diluted with buffer solution B (25 mmol/L Tris-HCl pH 7.4, 137 mmol/L NaCl, 2.68 mmol/L KCl), were added in 50 μL respectively and incubated at 4° C. overnight. After washed three times with buffer solution B containing 0.05% Tween 20, the plates were allowed to develop color by adding 100 μL of color reagent, TMB (Moss). The color reaction was stopped by 25 μL of 1 mol/L sulfuric acid and the absorbance was determined at 450 nm with a microplate reader (Molecular Device, VersaMax).
(§7) The values of human 11β-HSD1, human 11β-HSD2, and mouse 11β-HSD1 activities were subtracted from 100, and the resultant values were regarded as the respective 11β-HSD inhibition rates of example compounds. […] The comparison of human 11β-HSD1 and human 11β-HSD2 inhibiting activities is shown in Table 1, and the comparison of human 11β-HSD1 and mouse 11β-HSD1 inhibiting activities is shown in Table 2.

mouse 11β-HSD1 = target: T2, mouse 11β-HSD1 (Mus musculus, UniProt P50172); experiment: Enzyme inhibitory activity, mouse 11β-HSD1 (lysate of stably expressing CHO-K1 cells, cortisol by competitive ELISA); type: biochemical; settings: Table 2; mouse 11β-HSD1, cell lysate, 37° C. for 1 hour; read-out: m HSD1 in vitro assay (IC50 uM)
T2 construct: The obtained PCR products of about 0.9 kbp, 1.2 kbp, and 0.9 kbp were subcloned into an expression vector pcDNA3.1+/Zeo; expressed in transfected cells
T2 sequence (P50172 whole entry): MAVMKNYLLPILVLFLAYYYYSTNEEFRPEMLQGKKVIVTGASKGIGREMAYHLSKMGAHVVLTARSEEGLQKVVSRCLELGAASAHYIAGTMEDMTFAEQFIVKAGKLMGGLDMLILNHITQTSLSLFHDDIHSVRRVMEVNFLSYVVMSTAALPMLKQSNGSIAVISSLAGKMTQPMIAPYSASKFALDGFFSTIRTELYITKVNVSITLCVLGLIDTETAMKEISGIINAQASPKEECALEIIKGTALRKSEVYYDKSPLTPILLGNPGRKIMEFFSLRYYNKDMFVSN
Experimental: as §1, §2, §3, §4, §5, §6, §7

SMILES | IC50 (human 11β-HSD1; Table 2) [µM] | IC50 (mouse 11β-HSD1) [µM] | IC50 (human 11β-HSD1; Table 1) [µM]
CC1C(=O)N(C2C3CC4CC(C3)CC2C4)N1Cc1ccccc1 (stereo not drawn) [Example 8, 1-benzyl-4-methyl-2-(adamantan-2-yl)-1,2-diazetidin-3-one] | 0.79 | 0.18 | 
CC1C(=O)N(C2C3CC4CC(C3)CC2C4)N1Cc1ccc(Cl)cc1 (stereo not drawn) [Example 9, 1-(4-chlorobenzyl)-4-methyl-2-(adamantan-2-yl)-1,2-diazetidin-3-one] | 0.68 | 0.24 | 
CC1(C)C(=O)N(C2C3CC4CC(C3)CC2C4)N1Cc1ccccc1 (stereo not drawn) [Example 12, 1-benzyl-4,4-dimethyl-2-(adamantan-2-yl)-1,2-diazetidin-3-one] | 0.047 | 0.023 | 
CC1(C)C(=O)N(C2C3CC4CC(C3)CC2C4)N1Cc1ccc(Cl)cc1 (stereo not drawn) [Example 13, 1-(4-chlorobenzyl)-4,4-dimethyl-2-(adamantan-2-yl)-1,2-diazetidin-3-one] | 0.058 | 0.025 | 
Cc1ccc(CN2N(C3C4CC5CC(C4)CC3C5)C(=O)C2(C)C)cc1 (stereo not drawn) [Example 14, 4,4-dimethyl-1-(4-methylbenzyl)-2-(adamantan-2-yl)-1,2-diazetidin-3-one] | 0.84 | 0.088 | 
CC1(C)C(=O)N(C2C3CC4CC(C3)CC2C4)N1Cc1ccc(F)cc1 (stereo not drawn) [Example 15, 1-(4-fluorobenzyl)-4,4-dimethyl-2-(adamantan-2-yl)-1,2-diazetidin-3-one] | 0.36 | 0.084 | 
CC1(C)C(=O)N(C2C3CC4CC(C3)CC2C4)N1Cc1ccc(F)c(F)c1 (stereo not drawn) [Example 16, 1-(3,4-difluorobenzyl)-4,4-dimethyl-2-(adamantan-2-yl)-1,2-diazetidin-3-one] | 0.8 | 0.1 | 
CC1(C)C(=O)N(C2C3CC4CC(C3)CC2C4)N1Cc1ccc(F)cc1F (stereo not drawn) [Example 17, 1-(2,4-difluorobenzyl)-4,4-dimethyl-2-(adamantan-2-yl)-1,2-diazetidin-3-one] | 0.71 | 0.23 | 
CC1(C)C(=O)N(C2C3CC4CC(C3)CC2C4)N1Cc1cccc(F)c1F (stereo not drawn) [Example 19, 1-(2,3-difluorobenzyl)-4,4-dimethyl-2-(adamantan-2-yl)-1,2-diazetidin-3-one] | 0.47 | 0.27 | 
CC1(C)C(=O)N(C2C3CC4CC(C3)CC2C4)N1Cc1cc(F)ccc1F (stereo not drawn) [Example 20, 1-(2,5-difluorobenzyl)-4,4-dimethyl-2-(adamantan-2-yl)-1,2-diazetidin-3-one] | 0.35 | 0.2 | 
CC1(C)C(=O)N(C2C3CC4CC(C3)CC2C4)N1Cc1cccc(F)c1 (stereo not drawn) [Example 22, 1-(3-fluorobenzyl)-4,4-dimethyl-2-(adamantan-2-yl)-1,2-diazetidin-3-one] | 0.64 | 0.079 | 
CC1(C)C(=O)N(C2C3CC4CC(C3)CC2C4)N1Cc1ccccc1Cl (stereo not drawn) [Example 27, 1-(2-chlorobenzyl)-4,4-dimethyl-2-(adamantan-2-yl)-1,2-diazetidin-3-one] | 0.03 | 0.094 | 
CC1(C)C(=O)N(C2C3CC4CC(C3)CC2C4)N1C(=O)c1ccccc1I (stereo not drawn) [Example 121, 1-[(2-iodophenyl)carbonyl]-4,4-dimethyl-2-(adamantan-2-yl)-1,2-diazetidin-3-one] |  |  | 0.07
CC1(C)C(=O)N(C2C3CC4CC(C3)CC2C4)N1C(=O)c1cc(Cl)ccc1Cl (stereo not drawn) [Example 122, 1-[(2,5-dichlorophenyl)carbonyl]-4,4-dimethyl-2-(adamantan-2-yl)-1,2-diazetidin-3-one] |  |  | 0.32
CCc1ccccc1C(=O)N1N(C2C3CC4CC(C3)CC2C4)C(=O)C1(C)C (stereo not drawn) [Example 126, 1-[(2-ethylphenyl)carbonyl]-4,4-dimethyl-2-(adamantan-2-yl)-1,2-diazetidin-3-one] |  |  | 0.11
CC1(C)C(=O)N(C2C3CC4CC(C3)CC2C4)N1C(=O)c1ccc(F)cc1C(F)(F)F (stereo not drawn) [Example 132, 1-[(4-fluoro-2-trifluoromethylphenyl)carbonyl]-4,4-dimethyl-2-(adamantan-2-yl)-1,2-diazetidin-3-one] |  |  | 0.66
CC1(C)C(=O)N(C2C3CC4CC(C3)CC2C4)N1C(=O)c1ccccc1N (stereo not drawn) [Example 136, 1-[(2-aminophenyl)carbonyl]-4,4-dimethyl-2-(adamantan-2-yl)-1,2-diazetidin-3-one] |  |  | 0.14
Cc1ccc(C)c(C(=O)N2N(C3CCCCC3)C(=O)C2(C)C)c1 [Example 149, 2-cyclohexyl-1-[(2,5-dimethylphenyl)carbonyl]-4,4-dimethyl-1,2-diazetidin-3-one] |  |  | 0.9
CC1(C)C(=O)N(C2CCCCCCC2)N1C(=O)c1cccc2ccccc12 [Example 154, 2-cyclooctyl-4,4-dimethyl-1-(naphthalen-1-ylcarbonyl)-1,2-diazetidin-3-one] |  |  | 0.036
CC1(C)C(=O)N(C2C3CC4CC(C3)CC2C4)N1C(=O)c1cc(Cl)ccc1Br (stereo not drawn) [Example 163, 1-[(2-bromo-5-chlorophenyl)carbonyl]-4,4-dimethyl-2-(adamantan-2-yl)-1,2-diazetidin-3-one] |  |  | 0.72
CSc1ccccc1C(=O)N1N(C2C3CC4CC(C3)CC2C4)C(=O)C1(C)C (stereo not drawn) [Example 165, 4,4-dimethyl-1-{[2-(methylthio)phenyl]carbonyl}-2-(adamantan-2-yl)-1,2-diazetidin-3-one] |  |  | 0.096
CSc1ccccc1C(=O)N1N(C2CCCCCCC2)C(=O)C1(C)C [Example 168, 2-cyclooctyl-4,4-dimethyl-1-{[2-(methylthio)phenyl]carbonyl}-1,2-diazetidin-3-one] |  |  | 0.11
COCOc1ccc(N2N(C3C4CC5CC(C4)CC3C5)C(=O)C2(C)C)cc1 (stereo not drawn) [Example 214, 1-[4-(methoxymethoxy)phenyl]-4,4-dimethyl-2-(adamantan-2-yl)-1,2-diazetidin-3-one] |  |  | 0.041
COc1ccccc1N1N(C2CC3CCC2C3)C(=O)C1(C)C (stereo not drawn) [Example 223, 2-(bicyclo[2.2.1]heptan-2-yl)-1-(2-methoxyphenyl)-4,4-dimethyl-1,2-diazetidin-3-one] |  |  | 0.68
CC1(C)C(=O)N([C@H]2C3CC4CC2C[C@](O)(C4)C3)N1c1ccccc1 [Example 226, trans-2-(5-hydroxyadamantan-2-yl)-4,4-dimethyl-1-phenyl-1,2-diazetidin-3-one] |  |  | 0.95
COc1ccc(N2N([C@H]3C4CC5CC3C[C@](O)(C5)C4)C(=O)C2(C)C)cc1 [Example 230, trans-2-(5-hydroxyadamantan-2-yl)-1-(4-methoxyphenyl)-4,4-dimethyl-1,2-diazetidin-3-one] |  |  | 0.54
COc1ccc(N2N([C@H]3C4CC5CC3C[C@@](O)(C5)C4)C(=O)C2(C)C)cc1 [Example 240, cis-2-(5-hydroxyadamantan-2-yl)-1-(4-methoxyphenyl)-4,4-dimethyl-1,2-diazetidin-3-one] |  |  | 0.32
Cc1ccccc1N1N([C@H]2C3CC4CC2C[C@@](O)(C4)C3)C(=O)C1(C)C [Example 242, cis-2-(5-hydroxyadamantan-2-yl)-4,4-dimethyl-1-(2-methylphenyl)-1,2-diazetidin-3-one] |  |  | 0.076
CC1(C)C(=O)N([C@H]2C3CC4CC2C[C@@](O)(C4)C3)N1c1ccccc1O [Example 244, cis-1-(2-hydroxyphenyl)-2-(5-hydroxyadamantan-2-yl)-4,4-dimethyl-1,2-diazetidin-3-one] |  |  | 0.81
CC1(C)C(=O)N([C@H]2C3CC4CC2C[C@@](Cl)(C4)C3)N1c1cccc(Cl)c1Cl [Example 256, cis-2-(5-chloroadamantan-2-yl)-1-(2,3-dichlorophenyl)-4,4-dimethyl-1,2-diazetidin-3-one] |  |  | 0.26
